Read-outs that look alike come from different tables or passages of the source.
Legend:
[1] = parameters: method as in PMID 30150464; conditions: healthy volunteers, i.v. 1 mg/kg q12h for 10 days; cited from earlier work
[2] = Drug interaction study with rifampin (CYP3A4 inducer): plasma PK of i.v. eravacycline and metabolites; assay type: in vivo, human; conditions: for AUC0–24 / AUC(0-inf) / clearance / half-life / Vd / Cmax: n = 12; for Vd: read-out: Vss; for Cmax: iv
Method: (§1) Two single-center, open-label studies were conducted to evaluate the effects of itraconazole (CYP3A4 inhibitor) and rifampin (CYP3A4 inducer) on the pharmacokinetics of i.v. eravacycline in healthy subjects.
(ii) Study design. Each study included a 28-day screening period, a 13-day treatment period (19 days for rifampin), and an end-of-study visit 2 weeks after the last dose of study drug. […] For the itraconazole study, 200 mg oral itraconazole was administered q12h on day 8 and q24h on days 9 and 10. For the rifampin study, 600 mg oral rifampin was administered q24h from day 8 to day 17. All study treatments were administered in the fasting state.
(§2) (iii) Study assessments. Blood samples for PK analysis of eravacycline and its metabolites, TP-498, TP-6208, and TP-034, were collected predose and 1, 2, 4, 6, 8, 12, 24, 36, and 48 h after the start of the i.v. infusion on day 1 and day 10 (itraconazole) or day 1 and day 17 (rifampin). Safety assessments included AEs, clinical laboratory safety tests (hematology, serum chemistry, electrolytes, coagulation, urinalysis, and lipid profile), vital signs, physical examinations, and 12-lead ECG.
(§3) Concentrations of eravacycline, TP-498, and TP-6208 in human plasma samples were measured by LC-tandem MS after solid-phase extraction over a calibration range of 5.00 to 500 ng/ml. The LLOQ for eravacycline, TP-498, TP-6208, and TP-034 in human plasma was 5.00 ng/ml. Samples with eravacycline initial concentrations above the upper limit of quantification (500 ng/ml) were diluted appropriately with control blank human plasma and reanalyzed. There was no interference seen when human plasma was fortified with eravacycline, TP-498, TP-6208, and either itraconazole or rifampin.
(§4) (iv) Pharmacokinetic analysis. PK assessments included Cmax, Tmax, AUC0–24, AUC0–t, t1/2, CL, and Vss. Actual sampling time was used for PK calculations. PK parameters were derived by noncompartmental analysis. Descriptive statistics were calculated for analyte concentrations at each evaluation time point and for all quantitative PK parameters of eravacycline, TP-498, TP-6208, and TP-034 for day 1 and day 10 (day 17 for rifampin). The effect of itraconazole or rifampin on the PK profile of i.v. eravacycline was evaluated by comparing log-transformed PK parameters (Cmax and AUC0–t) associated with the administration of study drug on day 1 and day 10 (itraconazole) or day 1 and day 17 (rifampin) using paired t tests. The ratio and 90% confidence interval (CI) were presented after back transformation to the original scale. Pharmacokinetic variables were calculated using WinNonlin Professional.

[3] = as above; assay type: in vivo; conditions: human, intravenous, day 17, eravacycline plus rifampin, read-out: AUC0–t (distribution, as worded in the text)
[4] = Mass balance study: safety/tolerability; assay type: in vivo, human
Method: Safety was assessed from adverse events (AEs), physical examinations, laboratory safety tests (hematology, coagulation, clinical chemistry, and urinalysis), vital signs, ECGs, and body weight.

[5] = Mass balance study: excretion of radioactivity in urine and feces after i.v. [14C]eravacycline; assay type: in vivo, human; conditions: 60 mg [14C]eravacycline i.v.
Text: (ii) Study design. This was a single-center, open-label study of a single i.v. dose of [^14C]eravacycline to assess the mass balance recovery and PK of eravacycline. The primary objectives were to determine mass balance recovery, determine routes and rates of excretion, provide metabolite profiling and structural identification, and assess the PK of radioactivity in plasma and whole blood. Subjects were screened for inclusion in the study, including a detailed medical history, physical examination, and laboratory evaluations, in the 28 days before dosing. […] After an overnight fast, each subject received 60 mg [^14C]eravacycline containing not more than 3.8 MBq (105 μCi) ^14C as a single i.v. infusion over 60 min.
(v) Excretion of radioactivity. Mass balance was determined from the incremental amount and cumulative amount excreted in urine, feces, and urine and feces combined. Amount excreted and amount excreted expressed as a percentage of administered dose were determined for urine, feces, and total samples.

[6] = Drug interaction study with itraconazole (CYP3A4 inhibitor): plasma PK of i.v. eravacycline and metabolites; assay type: in vivo, human; conditions: for AUC(0-t) / Cmax / clearance / half-life / Vd: human, plasma, iv, mean ± SD, n = 10; for Vd: read-out: Vss
Method: as §1
(ii) Study design. Each study included a 28-day screening period, a 13-day treatment period (19 days for rifampin), and an end-of-study visit 2 weeks after the last dose of study drug. Eravacycline was administered in the morning as a 1-mg/kg i.v. infusion over 60 min on day 1 with a second dose on day 10 (itraconazole study) or day 17 (rifampin study). For the itraconazole study, 200 mg oral itraconazole was administered q12h on day 8 and q24h on days 9 and 10. For the rifampin study, 600 mg oral rifampin was administered q24h from day 8 to day 17. All study treatments were administered in the fasting state.
as §2, §3, §4

[7] = Itraconazole drug interaction study: safety/tolerability; assay type: in vivo, human
Method: as §2

[8] = parameters: species or system human; conditions: in vivo
Method: as §2

[9] = eravacycline plus rifampin (day 17) vs eravacycline alone (day 1), 1 mg/kg i.v.
[10] = human, plasma, intravenous, 1 mg/kg, day 1, eravacycline alone, mean ± SD
[11] = human, plasma, intravenous, day 17, with rifampin, mean ± SD
[12] = eravacycline plus itraconazole (day 10) vs eravacycline alone (day 1), 1 mg/kg i.v.
[13] = day 1, eravacycline 1 mg/kg i.v. alone
[14] = day 10, eravacycline 1 mg/kg i.v. with itraconazole

CN(C)[C@@H]1C(O)=C(C(N)=O)C(=O)[C@@]2(O)C(O)=C3C(=O)c4c(O)c(NC(=O)CN5CCCC5)cc(F)c4C[C@H]3C[C@@H]12 [eravacycline]
AUC0–12 [1]: 6,309 ng·h/ml
clearance (CL) [1]: 2.67 mL/min/kg
mean peak plasma concentration (Cmax) [1]: 1,825 ng/ml
volume of distribution at steady state (Vss) [1]: 4.0 L/kg
AUC0–24 ([2]; day 1, eravacycline alone, mean ± SD): 4,100 ± 589 h·ng/ml
AUC0–24 ([2]; day 17, with rifampin, mean ± SD): 3,090 ± 568 h·ng/ml
decrease of AUC0–24 with coadministration of rifampin ([2]; day 17 vs day 1): approximately 25%
decrease of AUC0–∞ with coadministration of rifampin ([2]; day 17 vs day 1): ~35%
increase of CL with coadministration of rifampin ([2]; day 17 vs day 1): approximately 50%
Ratio of geometric mean AUC0–t, day 17/day 1 [2, 9]: 67.9%
Ratio of geometric mean Cmax, day 17/day 1 [2, 9]: 106.5%
AUC(0-inf) [2, 10]: 5380 ng·h/mL
clearance [2, 10]: 3.2 ± 0.6 mL/min/kg
half-life [2, 10]: 15 ± 2 h
Vd [2, 10]: 2.85 ± 0.29 L/kg
AUC(0-t) ([2]; human, plasma, intravenous, 1 mg/kg, day 1, eravacycline alone, read-out: AUC0–t (distribution, as worded in the text)): 4100 ng·h/mL
AUC(0-inf) [2, 11]: 3520 ng·h/mL
clearance [2, 11]: 4.94 ± 1.08 mL/min/kg
half-life [2, 11]: 11 ± 2.3 h
Vd [2, 11]: 2.49 ± 0.51 L/kg
Cmax ([2]; human, plasma, day 1, eravacycline 1 mg/kg i.v. alone, mean ± SD): 1170 ng/mL
Cmax ([2]; human, plasma, day 17, eravacycline 1 mg/kg i.v. with rifampin 600 mg daily day 8 to 17, mean ± SD): 1260 ng/mL
AUC(0-t) [3]: 3090 ng·h/mL
serious or severe AEs [4]: No serious or severe AEs
number of subjects who experienced drug-related AEs ([4]; 5 male subjects): 3
subjects who experienced at least 1 adverse effect (AE) ([4]; 5 male subjects, single i.v. dose): 80%
Renal excretion, share of the dose [5]: approximately 34%
total radioactivity recovered in the feces [5]: 47.8%
total radioactive dose recovered in the urine and feces ([5]; 288-h collection period): 82.8%
share of the dose recovered within the first 72 h ([5]; urine and feces): Approximately half
Ratio of geometric mean AUC0–t, day 10/day 1 [6, 12]: 134.3%
Ratio of geometric mean Cmax, day 10/day 1 [6, 12]: 107.9%
decrease of CL with itraconazole ([6]; eravacycline plus itraconazole day 10 vs day 1): about 30%
AUC(0-t) [6, 13]: 4320 ng·h/mL
Cmax [6, 13]: 1100 ng/mL
clearance [6, 13]: 3.79 ± 1.03 mL/min/kg
half-life [6, 13]: 14 ± 2.4 h
Vd [6, 13]: 3.42 ± 0.73 L/kg
AUC(0-t) [6, 14]: 5700 ng·h/mL
Cmax [6, 14]: 1160 ng/mL
clearance [6, 14]: 2.57 ± 0.5 mL/min/kg
half-life [6, 14]: 19 ± 3.6 h
Vd [6, 14]: 3.37 ± 0.56 L/kg
subjects who experienced an AE ([7]; eravacycline i.v. plus itraconazole treatment period, 1 of 10 subjects): 10.0%
subjects who experienced an AE ([7]; eravacycline i.v. treatment period, 1 of 12 subjects): 8.3%
serious AEs or discontinuations for AEs related to study drug ([7]; itraconazole study): No serious AEs
subjects who experienced an AE ([8]; human, iv): 25.0%
serious AEs or discontinuations for AEs related to study drug [8]: No serious AEs
